# Article PMC7337247 (Critical care medicine, 2020)
# Entries after “also recorded” stand apart in the source; their conditions may differ. Read-outs that look alike come from different tables or passages of the source.
# How the values were obtained:
# [1] = tested on: CXCR2; test: Surface expression of CXCR2 by flow cytometry; assay type: cell-based, human; details: 100 nM ND6; with or without 1 μM POL7200 pretreatment
# [2] = biological target: T1, human FPR1 (Homo sapiens, UniProt P21462); details: cited from earlier work
# T1 sequence (P21462 1-350): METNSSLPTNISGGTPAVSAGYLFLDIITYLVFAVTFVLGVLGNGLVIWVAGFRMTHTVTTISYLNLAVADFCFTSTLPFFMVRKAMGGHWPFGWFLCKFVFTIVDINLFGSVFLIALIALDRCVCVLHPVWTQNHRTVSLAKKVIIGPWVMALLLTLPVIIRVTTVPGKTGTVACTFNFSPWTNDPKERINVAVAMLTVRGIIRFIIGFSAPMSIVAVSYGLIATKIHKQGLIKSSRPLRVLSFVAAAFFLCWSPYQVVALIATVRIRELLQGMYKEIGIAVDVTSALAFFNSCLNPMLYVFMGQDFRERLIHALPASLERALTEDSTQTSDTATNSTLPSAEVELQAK
# [3] = tested on: BLT1; test: Surface expression of BLT1 by flow cytometry; assay type: cell-based, human; details: 100 nM ND6; with or without 1 μM POL7200 pretreatment; 3 separate experiments
# [4] = tested on: human PMN; details: ref [7]; cited from earlier work
# [5] = tested on: human PMN; test: PMN phagocytosis of pHrodo-labeled E. coli; assay type: cell-based; details: 10 μg/mL Cytochalasin D, E. coli 20:1, 30 min 37°C
# [6] = tested on: Fpr2-KO bone marrow PMN; test: fMLF desensitization of migration to KC, Fpr2-KO mouse BM-PMN; assay type: cell-based; details: fMLF 100 nM or 1 μM for 45 min; KC 100 ng/mL; 60 min
# [7] = tested on: CXCR2; test: fMLF-induced heterologous desensitization: CXCL1-induced Ca2+ depletion; assay type: cell-based, human; details: pre-treatment with fMLF; 5 nM CXCL1
# [8] = tested on: wild type bone marrow PMN; test: fMLF desensitization of migration to KC, wild type mouse BM-PMN; assay type: cell-based; details: fMLF 100 nM or 1 μM for 45 min; KC 100 ng/mL; 60 min
# [9] = tested on: BLT1; test: fMLF-induced heterologous desensitization: LTB4-induced Ca2+ depletion; assay type: cell-based, human; details: fMLF 10 nM or 100 nM; 100 nM LTB4
# [10] = tested on: Fpr1-KO bone marrow PMN; test: fMLF desensitization of migration to KC, Fpr1-KO mouse BM-PMN; assay type: cell-based; details: fMLF 100 nM or 1 μM for 45 min; KC 100 ng/mL; 60 min
compound,measurement,setting,value
fMMYALF [ND6],effect on CXCR2 surface expression,[1],significantly reduces expression of CXCR2; also recorded: internalized and decreased the surface expression of CXCR2 and BLT1
same,receptor through which it acts,"[2]; 100 nM, ref [7]",acts exclusively at FPR1
same,effect on BLT1 surface expression,[3],significantly reduces expression of BLT1
same,potency as inducer of PMN Ca2+ release/chemotaxis,[4],potent inducer of human PMN Ca^2+ release and chemotaxis; also recorded: even more potent than fMLF; also recorded: most potent human mtFP
C=C1[C@@H](C)[C@H]2[C@H](Cc3ccccc3)NC(=O)[C@]23[C@H](OC(C)=O)/C=C/[C@@](C)(O)C(=O)[C@@H](C)C/C=C/[C@H]3[C@@H]1O [Cytochalasin D],"effect on phagocytosis, positive control",[5],expected suppression of phagocytosis
same,"effect on phagocytosis, positive control",[5]; listed as cytochalasin D,inhibited PMN phagocytosis
N-formyl-methionyl-leucyl phenylalanine [fMLF],"effect of fMLF pre-exposure on migration toward KC, Fpr2-KO",[6],inhibited migration toward the CXC-chemokine KC; also recorded: desensitized to KC by prior fMLF exposure
same,suppression of CXCL1-induced Ca2+ response by fMLF pre-treatment,[7],strongly inhibits that response; also recorded: significantly reduced calcium depletion
same,"effect of fMLF pre-exposure on migration toward KC, wild type",[8],inhibited migration toward the CXC-chemokine KC; also recorded: desensitized to KC by prior fMLF exposure
same,receptor through which it acts,"[2]; nanomolar concentrations, ref [17]",acts exclusively through high-affinity human FPR1 receptors
same,suppression of LTB4-induced Ca2+ response by fMLF pre-treatment,[9],markedly inhibits Ca^2+ flux response to LTB4; also recorded: significantly reduced calcium depletion
same,"effect of fMLF pre-exposure on migration toward KC, Fpr1-KO",[10],PMN migration to KC persisted; also recorded: protected from chemokine desensitization
